SMILES strings stand for the structures.

T1 sequence (Q9UKV8 432-578): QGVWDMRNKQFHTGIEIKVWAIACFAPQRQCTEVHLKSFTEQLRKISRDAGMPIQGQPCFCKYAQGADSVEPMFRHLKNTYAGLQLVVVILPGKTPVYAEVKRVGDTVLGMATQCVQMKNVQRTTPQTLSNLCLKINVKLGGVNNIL

This test has as its target T1, AGO2-MID (Homo sapiens, UniProt Q9UKV8).
T1 construct: MID domain, residues 432-578; expressed in E. coli BL21(DE3)pLysS as His6-SUMO-TEV fusion (pCold I), His6-SUMO cleaved with proTEV
Put plainly: isothermal titration calorimetry. The class given is binding. Conditions: read-out: Ka (× 10^3 M^-1) (converted). From the text:
isothermal titration calorimetry on AGO2-MID
In general terms: In ITC the heat of successive injections is recorded.
Turning to `Nc1ncnc2c1ncn2[C@@H]1O[C@H](COP(=O)(O)O)[C@@H](O)[C@H]1O` [AMP], the Kd was 169 µM.

On to `Nc1ncnc2c1ncn2[C@@H]1O[C@H](COP(=O)(O)O[C@H]2[C@@H](O)[C@H](n3cnc4c(N)ncnc43)O[C@@H]2COP(=O)(O)O)[C@@H](O)[C@H]1O` [p-rArA], for which the Kd was 4.35 µM.

For `Nc1ncnc2c1ncn2CC(=O)N[C@@H](COP(=O)(O)O)COP(=O)(O)OC[C@H]1O[C@@H](n2cnc3c(N)ncnc32)[C@H](O)[C@@H]1O` [p-sArA], the Kd is 139 µM.

With `Nc1ncnc2c1ncn2CC(=O)N[C@H](CO)COP(=O)(O)OC[C@H](COP(=O)(O)O)NC(=O)Cn1cnc2c(N)ncnc21` [p-sAsA], the Kd is 169 µM.
